Results reported in PubChem BioAssay (NCI).
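Method: 48-hour compound exposure of cells in 96-well plates, five concentrations, linear interpolation of endpoints. TGI marks complete inhibition of growth.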

Assays:
Test in all cases: NCI-60 cell line screen, 48 h
786-0 renal = test system: 786-0 renal
SN12C renal = test system: SN12C renal
T-47D breast = test system: T-47D breast
HCC-2998 colon = test system: HCC-2998 colon
ACHN renal = test system: ACHN renal
SNB-19 CNS = test system: SNB-19 CNS
SK-OV-3 ovarian = test system: SK-OV-3 ovarian
OVCAR-8 ovarian = test system: OVCAR-8 ovarian
OVCAR-5 ovarian = test system: OVCAR-5 ovarian
KM12 colon = test system: KM12 colon
NCI/ADR-RES ovarian = test system: NCI/ADR-RES ovarian
MDA-MB-435 = test system: MDA-MB-435
EKVX NSCLC = test system: EKVX NSCLC
HCT-116 colon = test system: HCT-116 colon
UACC-62 melanoma = test system: UACC-62 melanoma
A498 renal = test system: A498 renal
SK-MEL-28 melanoma = test system: SK-MEL-28 melanoma
MCF7 breast = test system: MCF7 breast
COLO 205 colon = test system: COLO 205 colon
DU-145 prostate = test system: DU-145 prostate
TK-10 renal = test system: TK-10 renal
SK-MEL-2 melanoma = test system: SK-MEL-2 melanoma
SR leukemia = test system: SR leukemia
SF-268 CNS = test system: SF-268 CNS
LOX IMVI melanoma = test system: LOX IMVI melanoma
OVCAR-3 ovarian = test system: OVCAR-3 ovarian
SW-620 colon = test system: SW-620 colon
BT-549 breast = test system: BT-549 breast
PC-3 prostate = test system: PC-3 prostate
SNB-75 CNS = test system: SNB-75 CNS
RPMI-8226 leukemia = test system: RPMI-8226 leukemia
HCT-15 colon = test system: HCT-15 colon
M14 melanoma = test system: M14 melanoma
U251 CNS = test system: U251 CNS
UO-31 renal = test system: UO-31 renal
HOP-62 NSCLC = test system: HOP-62 NSCLC
HS 578T breast = test system: HS 578T breast
MOLT-4 leukemia = test system: MOLT-4 leukemia
NCI-H23 lung = test system: NCI-H23 lung
MDA-N = test system: MDA-N
OVCAR-4 ovarian = test system: OVCAR-4 ovarian
UACC-257 melanoma = test system: UACC-257 melanoma
MDA-MB-231 breast = test system: MDA-MB-231 breast
RXF 393 renal = test system: RXF 393 renal
SF-295 CNS = test system: SF-295 CNS
K-562 leukemia = test system: K-562 leukemia
NCI-H460 lung = test system: NCI-H460 lung
A549 NSCLC = test system: A549 NSCLC
NCI-H226 lung = test system: NCI-H226 lung
CAKI-1 renal = test system: CAKI-1 renal
SK-MEL-5 melanoma = test system: SK-MEL-5 melanoma
HT29 colon = test system: HT29 colon
NCI-H522 lung = test system: NCI-H522 lung
CCRF-CEM leukemia = test system: CCRF-CEM leukemia
IGROV1 ovarian = test system: IGROV1 ovarian
SF-539 CNS = test system: SF-539 CNS
MALME-3M melanoma = test system: MALME-3M melanoma
HL-60(TB) leukemia = test system: HL-60(TB) leukemia

## O=C(O)CCC(N=C(C(=NC(CCC(=O)O)C(=O)O)c1ccccc1)c1ccccc1)C(=O)O (centres undefined)
786-0 renal
  TGI: > 100 µM
SN12C renal
  TGI: > 100 µM
T-47D breast
  TGI: > 100 µM
HCC-2998 colon
  TGI: > 100 µM
ACHN renal
  TGI: > 100 µM
SNB-19 CNS
  TGI: > 100 µM
SK-OV-3 ovarian
  TGI: > 100 µM
OVCAR-8 ovarian
  TGI: > 100 µM
OVCAR-5 ovarian
  TGI: > 100 µM
KM12 colon
  TGI: > 100 µM
NCI/ADR-RES ovarian
  TGI: > 100 µM
MDA-MB-435
  TGI: > 100 µM
EKVX NSCLC
  TGI: > 100 µM
HCT-116 colon
  TGI: > 100 µM
UACC-62 melanoma
  TGI: > 100 µM
A498 renal
  TGI: > 100 µM
SK-MEL-28 melanoma
  TGI: > 100 µM
MCF7 breast
  TGI: > 100 µM
COLO 205 colon
  TGI: > 100 µM
DU-145 prostate
  TGI: > 100 µM
TK-10 renal
  TGI: > 100 µM
SK-MEL-2 melanoma
  TGI: > 100 µM
SR leukemia
  TGI: > 100 µM
SF-268 CNS
  TGI: > 100 µM
LOX IMVI melanoma
  TGI: > 100 µM
OVCAR-3 ovarian
  TGI: > 100 µM
SW-620 colon
  TGI: > 100 µM
BT-549 breast
  TGI: > 100 µM
PC-3 prostate
  TGI: > 100 µM
SNB-75 CNS
  TGI: > 100 µM
RPMI-8226 leukemia
  TGI: > 100 µM
HCT-15 colon
  TGI: > 100 µM
M14 melanoma
  TGI: > 100 µM
U251 CNS
  TGI: > 100 µM
UO-31 renal
  TGI: > 100 µM
HOP-62 NSCLC
  TGI: > 100 µM
HS 578T breast
  TGI: > 100 µM
MOLT-4 leukemia
  TGI: > 100 µM
NCI-H23 lung
  TGI: > 100 µM
MDA-N
  TGI: > 100 µM
OVCAR-4 ovarian
  TGI: > 100 µM
UACC-257 melanoma
  TGI: > 100 µM
MDA-MB-231 breast
  TGI: > 100 µM
RXF 393 renal
  TGI: > 100 µM
SF-295 CNS
  TGI: > 100 µM
K-562 leukemia
  TGI: > 100 µM
NCI-H460 lung
  TGI: > 100 µM
A549 NSCLC
  TGI: > 100 µM
NCI-H226 lung
  TGI: > 100 µM

## C#Cc1nc(N)c2ncn(C3OC(COS(N)(=O)=O)C(O)C3O)c2n1 (centres undefined)
786-0 renal
  TGI: 0.797 µM
SN12C renal
  TGI: 0.256 µM
T-47D breast
  TGI: < 0.01 µM
HCC-2998 colon
  TGI: 0.191 µM
ACHN renal
  TGI: 0.0743 µM
SNB-19 CNS
  TGI: 0.266 µM
SK-OV-3 ovarian
  TGI: < 0.01 µM
OVCAR-8 ovarian
  TGI: 0.194 µM
OVCAR-5 ovarian
  TGI: 0.122 µM
KM12 colon
  TGI: 0.352 µM
NCI/ADR-RES ovarian
  TGI: < 0.0291 µM
MDA-MB-435
  TGI: 0.0717 µM
EKVX NSCLC
  TGI: 1.29 µM
HCT-116 colon
  TGI: 0.288 µM
UACC-62 melanoma
  TGI: 0.369 µM
A498 renal
  TGI: < 0.0302 µM
SK-MEL-28 melanoma
  TGI: 0.298 µM
CAKI-1 renal
  TGI: 0.225 µM
SK-MEL-5 melanoma
  TGI: 0.344 µM
MCF7 breast
  TGI: > 100 µM
DU-145 prostate
  TGI: 0.0997 µM
TK-10 renal
  TGI: 0.327 µM
SK-MEL-2 melanoma
  TGI: 0.0196 µM
HT29 colon
  TGI: 0.481 µM
SR leukemia
  TGI: < 0.0172 µM
SF-268 CNS
  TGI: 0.688 µM
LOX IMVI melanoma
  TGI: < 0.0325 µM
OVCAR-3 ovarian
  TGI: 0.0901 µM
SW-620 colon
  TGI: 0.665 µM
BT-549 breast
  TGI: 0.349 µM
PC-3 prostate
  TGI: 0.213 µM
SNB-75 CNS
  TGI: 0.349 µM
NCI-H522 lung
  TGI: < 0.01 µM
RPMI-8226 leukemia
  TGI: 0.11 µM
HCT-15 colon
  TGI: 0.429 µM
CCRF-CEM leukemia
  TGI: < 0.0258 µM
M14 melanoma
  TGI: 0.457 µM
U251 CNS
  TGI: 0.449 µM
UO-31 renal
  TGI: 0.15 µM
HOP-62 NSCLC
  TGI: 1.97 µM
IGROV1 ovarian
  TGI: 0.114 µM
HS 578T breast
  TGI: 0.736 µM
MOLT-4 leukemia
  TGI: < 0.0258 µM
NCI-H23 lung
  TGI: 0.136 µM
MDA-N
  TGI: < 0.0299 µM
SF-539 CNS
  TGI: 0.198 µM
UACC-257 melanoma
  TGI: 0.339 µM
MDA-MB-231 breast
  TGI: < 0.0476 µM
RXF 393 renal
  TGI: 0.0866 µM
SF-295 CNS
  TGI: 3.17 µM
K-562 leukemia
  TGI: > 100 µM
NCI-H460 lung
  TGI: 0.634 µM
A549 NSCLC
  TGI: 1.56 µM
NCI-H226 lung
  TGI: 0.0491 µM

## Clc1ccc(Cl)c(NNc2cc(Cl)ccc2Cl)c1
786-0 renal
  TGI: > 10 µM
SN12C renal
  TGI: > 10 µM
T-47D breast
  TGI: > 10 µM
HCC-2998 colon
  TGI: > 10 µM
ACHN renal
  TGI: 7.43 µM
SNB-19 CNS
  TGI: > 10 µM
SK-OV-3 ovarian
  TGI: > 10 µM
OVCAR-8 ovarian
  TGI: > 10 µM
OVCAR-5 ovarian
  TGI: > 10 µM
KM12 colon
  TGI: > 10 µM
NCI/ADR-RES ovarian
  TGI: 9 µM
MDA-MB-435
  TGI: > 10 µM
EKVX NSCLC
  TGI: > 10 µM
HCT-116 colon
  TGI: > 10 µM
UACC-62 melanoma
  TGI: > 10 µM
A498 renal
  TGI: > 10 µM
SK-MEL-28 melanoma
  TGI: > 10 µM
CAKI-1 renal
  TGI: > 10 µM
SK-MEL-5 melanoma
  TGI: 6.35 µM
MCF7 breast
  TGI: > 10 µM
COLO 205 colon
  TGI: > 10 µM
DU-145 prostate
  TGI: > 10 µM
TK-10 renal
  TGI: > 10 µM
SK-MEL-2 melanoma
  TGI: 8.6 µM
HT29 colon
  TGI: > 10 µM
MALME-3M melanoma
  TGI: 9.7 µM
SR leukemia
  TGI: > 10 µM
HL-60(TB) leukemia
  TGI: > 10 µM
SF-268 CNS
  TGI: > 10 µM
LOX IMVI melanoma
  TGI: > 10 µM
OVCAR-3 ovarian
  TGI: 7.81 µM
SW-620 colon
  TGI: > 10 µM
BT-549 breast
  TGI: > 10 µM
PC-3 prostate
  TGI: > 10 µM
NCI-H522 lung
  TGI: > 10 µM
RPMI-8226 leukemia
  TGI: > 10 µM
HCT-15 colon
  TGI: > 10 µM
CCRF-CEM leukemia
  TGI: > 10 µM
M14 melanoma
  TGI: > 10 µM
U251 CNS
  TGI: > 10 µM
HOP-62 NSCLC
  TGI: > 10 µM
IGROV1 ovarian
  TGI: > 10 µM
HS 578T breast
  TGI: > 10 µM
MOLT-4 leukemia
  TGI: > 10 µM
NCI-H23 lung
  TGI: 7.18 µM
MDA-N
  TGI: > 10 µM
SF-539 CNS
  TGI: > 10 µM
OVCAR-4 ovarian
  TGI: > 10 µM
UACC-257 melanoma
  TGI: > 10 µM
MDA-MB-231 breast
  TGI: > 10 µM
RXF 393 renal
  TGI: > 10 µM
SF-295 CNS
  TGI: > 10 µM
K-562 leukemia
  TGI: > 10 µM
NCI-H460 lung
  TGI: > 10 µM
A549 NSCLC
  TGI: > 10 µM
NCI-H226 lung
  TGI: > 10 µM
